Read-outs that look alike come from different tables or passages of the source.
Key:
Pim-1 [1] = target: T1, Pim-1 (Homo sapiens (Human), UniProt P11309); experiment: Pim enzyme assay (HTRF, 96-well), Pim-1; assay type: biochemical; conditions: full length recombinant Pim-1, biotinylated-BAD (S112) peptide, 10-point curve, 2 h RT, read-out: Pim-1 IC50 IP
In short: (§1)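 HTRF detection of biotinylated BAD (S112) phosphorylation by full-length recombinant His-tagged Pim-1 or Pim-2 in 60 mM Hepes pH 7.0, 0.05% BSA, 2 mM DTT at 22 °C: 2 h for Pim-1, 45 min for Pim-2. Stopped with EDTA; IC50 from 4-parameter logistic fit of percent of control.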

Pim-2 [2] = target: T2, Pim-2 (Homo sapiens (Human), UniProt Q9P1W9); experiment: Pim enzyme assay (HTRF, 96-well), Pim-2; assay type: biochemical; conditions: full length recombinant Pim-2, biotinylated-BAD (S112) peptide, 10-point curve, 45 min RT, read-out: Pim-2 IC50 IP
In short: as §1

Pim-1 [3] = target: T1, Pim-1; experiment: Pim-Mn enzyme assay (HTRF, 384-well), Pim-1; assay type: biochemical; conditions: read-out: Pim-1-Mn IC50 IP
Pim-2 [4] = target: T2, Pim-2; experiment: Pim-Mn enzyme assay (HTRF, 384-well), Pim-2; assay type: biochemical; conditions: read-out: Pim-2-Mn IC50 IP
[5] = tested on: KMS-12-BM myeloma cell line; experiment: Pim KMS-12 cell assay (phospho-BAD S112 / total BAD, MSD)
[6] = Pim-1 enzyme 5 pM, ATP 1.5 μM, BAD (S112) 0.5 μM, HTRF, 22-point curve
[7] = Pim-2 enzyme 0.5 pM, ATP 1.5 μM, BAD (S112) 0.5 μM, HTRF, 22-point curve
[8] = Homo sapiens, KMS-12-BM, read-out: KMS-12-BM IC50 IP, KMS-12-BM cells, phospho-BAD (S112) vs total BAD, 1 hour 50 min with compound
[9] = read-out: KMS-12-BM IC50 IP, KMS-12-BM cells, phospho-BAD (S112) vs total BAD, 1 hour 50 min with compound

T1 sequence (P11309 whole entry): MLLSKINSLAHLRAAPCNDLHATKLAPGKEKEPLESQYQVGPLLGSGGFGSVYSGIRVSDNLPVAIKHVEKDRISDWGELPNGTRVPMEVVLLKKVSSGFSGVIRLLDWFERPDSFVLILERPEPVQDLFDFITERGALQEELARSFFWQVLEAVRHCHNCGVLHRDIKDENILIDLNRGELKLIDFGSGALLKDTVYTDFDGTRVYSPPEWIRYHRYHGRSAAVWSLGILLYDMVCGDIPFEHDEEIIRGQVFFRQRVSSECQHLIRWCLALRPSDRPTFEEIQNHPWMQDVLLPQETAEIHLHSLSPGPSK
T2 sequence (Q9P1W9 whole entry): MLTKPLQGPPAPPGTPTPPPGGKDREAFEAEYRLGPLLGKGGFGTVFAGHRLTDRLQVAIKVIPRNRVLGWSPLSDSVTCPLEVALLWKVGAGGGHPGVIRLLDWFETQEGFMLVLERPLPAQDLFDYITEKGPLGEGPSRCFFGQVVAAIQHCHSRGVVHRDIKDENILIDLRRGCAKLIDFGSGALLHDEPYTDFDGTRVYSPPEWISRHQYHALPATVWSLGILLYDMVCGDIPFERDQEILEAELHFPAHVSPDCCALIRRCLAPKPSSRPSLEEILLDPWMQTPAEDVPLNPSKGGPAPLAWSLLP

SMILES	IC50 (Pim-1 [1])	IC50 (Pim-2 [2])	IC50 (Pim-1 [3]; [6])	IC50 (Pim-2 [4]; [7])	IC50 [5, 8]	IC50 [5, 9]	IC50 (Pim-1 [3])	IC50 (Pim-2 [4])	IC50 ([5]; Homo sapiens, KMS-12-BM, read-out: KMS-12-BM IC50 IP)
Cc1nc2cccc(-c3cc4c([nH]3)CCNC4=O)c2nc1NC1(CO)CCC1 [Example 146, 2-(3-((1-(hydroxymethyl)cyclobutyl)amino)-2-methylquinoxalin-5-yl)-6,7-dihydro-1H-pyrrolo[3,2-c]pyridin-4(5H)-one]	8.9 nM	7.9 nM	6.5 nM	3 nM	481 nM				
Cc1nc2cccc(-c3cc4c([nH]3)CCNC4=O)c2nc1NC1(C)CCC1 [Example 144, 2-(2-methyl-3-((1-methylcyclobutyl)amino)quinoxalin-5-yl)-6,7-dihydro-1H-pyrrolo[3,2-c]pyridin-4(5H)-one]	2 nM	1.6 nM	0.8 nM	0.6 nM	67.8 nM				
Cc1nc2cccc(-c3cc4c([nH]3)CCNC4=O)c2nc1N[C@H]1CC[C@@H](N)C1 (single isomer, unassigned) [Example 143, 2-(3-((cis-3-aminocyclopentyl)amino)-2-methylquinoxalin-5-yl)-6,7-dihydro-1H-pyrrolo[3,2-c]pyridin-4(5H)-one]	0.7 nM	0.8 nM	0.3 nM	0.4 nM		440 nM			
Cc1nc2cccc(-c3cc4c([nH]3)CCNC4=O)c2nc1NCC(C)(C)C [Example 147, 2-(2-methyl-3-(neopentylamino)quinoxalin-5-yl)-6,7-dihydro-1H-pyrrolo[3,2-c]pyridin-4(5H)-one]	2.9 nM	1.4 nM	1.9 nM	0.6 nM	176 nM				
Cc1nc2cccc(-c3cc4c([nH]3)CCNC4=O)c2nc1NC(C)(C)CO [Example 201, 2-(3-((1-hydroxy-2-methylpropan-2-yl)amino)-2-methylquinoxalin-5-yl)-6,7-dihydro-1H-pyrrolo[3,2-c]pyridin-4(5H)-one]	3 nM	2.8 nM	2.5 nM	1.7 nM	136 nM				
Cc1nc2cccc(-c3cc4c([nH]3)CCNC4=O)c2nc1NC1CCC1 [Example 131, 2-(3-(cyclobutylamino)-2-methylquinoxalin-5-yl)-6,7-dihydro-1H-pyrrolo[3,2-c]pyridin-4(5H)-one]	5 nM	2.6 nM	1.6 nM	0.8 nM	142 nM				
Cc1nc2cccc(-c3cc4c([nH]3)CCNC4=O)c2nc1NC1(C)COC1 [Example 197, 2-(2-methyl-3-((3-methyloxetan-3-yl)amino)quinoxalin-5-yl)-6,7-dihydro-1H-pyrrolo[3,2-c]pyridin-4(5H)-one]	7.2 nM	5.7 nM			511 nM				
N[C@H]1CCC[C@H](Nc2ccc3cccc(-c4cc5c([nH]4)CCNC5=O)c3n2)C1 (racemic) [Example 120, rac-2-(2-((trans-3-aminocyclohexyl)amino)quinolin-8-yl)-6,7-dihydro-1H-pyrrolo[3,2-c]pyridin-4(5H)-one]	0.6 nM	4.6 nM			2210 nM				
Cc1cc2cccc(-c3cc4c([nH]3)CCNC4=O)c2nc1Nc1ccccc1 [Example 105, 2-(3-methyl-2-(phenylamino)quinolin-8-yl)-6,7-dihydro-1H-pyrrolo[3,2-c]pyridin-4(5H)-one]	0.8 nM	1.2 nM			407 nM				
Cc1nc2cccc(-c3cc4c([nH]3)CCNC4=O)c2nc1N[C@H]1CC[C@@H](N)C1 (single isomer, unassigned) [Example 142, 2-(3-((cis-3-aminocyclopentyl)amino)-2-methylquinoxalin-5-yl)-6,7-dihydro-1H-pyrrolo[3,2-c]pyridin-4(5H)-one]	1.9 nM	5.3 nM	0.7 nM	1.4 nM		2260 nM			
O=C1NCCc2[nH]c(-c3c(F)ccc4ccc(Nc5cccnc5)nc34)cc21 [Example 228, 2-(7-fluoro-2-(pyridin-3-ylamino)quinolin-8-yl)-6,7-dihydro-1H-pyrrolo[3,2-c]pyridin-4(5H)-one]	3 nM	0.9 nM			1610 nM				
O=C1NCCc2[nH]c(-c3cccc4ccc(Oc5cccnc5)nc34)cc21 [Example 39, 2-(2-(3-pyridinyloxy)-8-quinolinyl)-1,5,6,7-tetrahydro-4H-pyrrolo[3,2-c]pyridin-4-one]	6.3 nM	4.6 nM			5380 nM				
Cc1nc2cccc(-c3cc4c([nH]3)CCNC4=O)c2nc1NC1CC(F)(F)C1 [Example 145, 2-(3-((3,3-difluorocyclobutyl)amino)-2-methylquinoxalin-5-yl)-6,7-dihydro-1H-pyrrolo[3,2-c]pyridin-4(5H)-one]	14.2 nM	8.9 nM			971 nM		8.7 nM	4.6 nM	
O=C1NCCc2[nH]c(-c3cccc4ccc(NC5CCOCC5)nc34)cc21 [Example 85, 2-(2-((Tetrahydro-2H-pyran-4-yl)amino)quinolin-8-yl)-6,7-dihydro-1H-pyrrolo[3,2-c]pyridin-4(5H)-one]	4.4 nM	22.6 nM			953 nM				
CN(c1ccccc1)c1ccc2cccc(-c3cc4c([nH]3)CCNC4=O)c2n1 [Example 4, 2-(2-(methyl(phenyl)amino)quinolin-8-yl)-6,7-dihydro-1H-pyrrolo[3,2-c]pyridin-4(5H)-one]	2.1 nM	6.8 nM							2340 nM
O=C1NCCc2[nH]c(-c3cccc4ccc(Nc5ccc(F)cc5F)nc34)cc21 [Example 8, 2-(2-((2,4-difluorophenyl)amino)quinolin-8-yl)-6,7-dihydro-1H-pyrrolo[3,2-c]pyridin-4(5H)-one]	2.8 nM	12.7 nM			1280 nM				

From patent publication US9394297B2, “Amides as pim inhibitors” (AMGEN INC., priority 2012, dated 2016)
